Reference: the supplement of paper PMC10307832

These cell lines were tested with c1ccc2c(CCNc3ccc(Nc4ccncc4)cc3)c[nH]c2c1 [Serdemetan] + COc1cccc2cc(-c3nc([C@H]4CC[C@H](C(=O)O)CC4)n4ncnc(N)c34)[nH]c12 [OSI-027] (partner 0.5 µM) (assay: relative viability (nuclei count vs DMSO), 5 days (fraction); higher = more cells survive). Conditions: first compound 0.04 µM.
How it was run: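 Lung cancer cell lines were pin-tool dosed in 1536-well plates on the day after seeding, with either a lone drug or a fixed anchor-drug dose plus five library-drug doses (not always all listed) in √10 steps. Nuclei were counted on 4× images after 5 days. Relative viability is the ratio of treated-well to vehicle-well nuclei counts, with each value a median of duplicate plates.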
For NCI-H520, the relative viability was 0.283. With NCI-H2126 the relative viability was 0.7. Work on EMC-BAC-2 yielded a relative viability of 0.368. In the case of NCI-H2085, the relative viability is reported as 0.701. Cell Line HCC-366 has a relative viability of 0.87. NCI-H1666 showed a relative viability of 0.898. Cell Line NCI-H596 has a relative viability of 0.888. Work on LK-2 yielded a relative viability of 0.205. In the case of NCI-H2087, the relative viability is reported as 0.548. Work on NCI-H2342 yielded a relative viability of 0.66. Cell Line SK-MES-1 has a relative viability of 0.572. In the case of H3255, the relative viability is reported as 0.587. With COR-L23 the relative viability was 0.796. Work on COR-L 105 yielded a relative viability of 0.749. In the case of LOU-NH91, the relative viability is reported as 0.703. ChaGo-K-1 was tested, and the relative viability was 0.546. NCI-H2170 showed a relative viability of 0.686. Work on NCI-H2405 yielded a relative viability of 0.591. HOP-62 gave a relative viability of 0.869. HCC-44 showed a relative viability of 0.482. With SW 900 the relative viability was 0.757. With LU99A the relative viability was 0.282. In the case of NCI-H441, the relative viability is reported as 0.581. NCI-H1395 was tested, and the relative viability was 0.526. With NCI-H1793 the relative viability was 0.385.

Same assay, conditions: first compound 0.1265 µM
In the case of NCI-H522, the relative viability is reported as 0.704. In the case of NCI-H1623, the relative viability is reported as 0.395. NCI-H727 gave a relative viability of 0.681. For NCI-H1650, the relative viability was 0.701. For NCI-H1993, the relative viability was 0.614. Cell Line SW 1573 has a relative viability of 0.705. Work on NCI-H838 yielded a relative viability of 0.416. LCLC-103H gave a relative viability of 0.551. NCI-H520 showed a relative viability of 0.273. With NCI-H2126 the relative viability was 0.757. Cell Line EMC-BAC-2 has a relative viability of 0.383. Cell Line NCI-H2085 has a relative viability of 0.702. HCC-366 showed a relative viability of 0.858. Work on NCI-H1666 yielded a relative viability of 0.887. Work on NCI-H596 yielded a relative viability of 0.699. With LK-2 the relative viability was 0.23. NCI-H2087 gave a relative viability of 0.641. For NCI-H2342, the relative viability was 0.648. In the case of SK-MES-1, the relative viability is reported as 0.578. H3255 gave a relative viability of 0.675. COR-L23 showed a relative viability of 0.712. With COR-L 105 the relative viability was 0.649. Cell Line LOU-NH91 has a relative viability of 0.681. ChaGo-K-1 showed a relative viability of 0.611. For NCI-H2170, the relative viability was 0.737. With NCI-H2405 the relative viability was 0.602. HOP-62 was tested, and the relative viability was 0.842. With HCC-44 the relative viability was 0.498. Work on SW 900 yielded a relative viability of 0.602. For LU99A, the relative viability was 0.313. Work on NCI-H1648 yielded a relative viability of 0.255. Cell Line NCI-H441 has a relative viability of 0.802. With NCI-H1395 the relative viability was 0.637. Work on NCI-H1793 yielded a relative viability of 0.251.

Same assay, conditions: first compound 0.4 µM
Work on NCI-H522 yielded a relative viability of 0.887. NCI-H1623 gave a relative viability of 0.359. NCI-H727 gave a relative viability of 0.567. Cell Line NCI-H1650 has a relative viability of 0.412. NCI-H1993 gave a relative viability of 0.665. For SW 1573, the relative viability was 0.716. NCI-H838 was tested, and the relative viability was 0.461. In the case of LCLC-103H, the relative viability is reported as 0.479. Cell Line NCI-H520 has a relative viability of 0.297. NCI-H2126 showed a relative viability of 0.611. For EMC-BAC-2, the relative viability was 0.392. In the case of NCI-H2085, the relative viability is reported as 0.593. HCC-366 showed a relative viability of 0.733. Work on NCI-H1666 yielded a relative viability of 0.847. NCI-H596 gave a relative viability of 0.614. Cell Line LK-2 has a relative viability of 0.216. NCI-H2087 showed a relative viability of 0.573. Cell Line NCI-H2342 has a relative viability of 0.731. For SK-MES-1, the relative viability was 0.621. With H3255 the relative viability was 0.613. COR-L23 gave a relative viability of 0.799. In the case of COR-L 105, the relative viability is reported as 0.452. With LOU-NH91 the relative viability was 0.456. Cell Line ChaGo-K-1 has a relative viability of 0.539. In the case of NCI-H2170, the relative viability is reported as 0.635. For NCI-H2405, the relative viability was 0.657. In the case of HOP-62, the relative viability is reported as 0.856. In the case of HCC-44, the relative viability is reported as 0.598. Work on SW 900 yielded a relative viability of 0.632. Work on LU99A yielded a relative viability of 0.275. For NCI-H1648, the relative viability was 0.335. NCI-H441 gave a relative viability of 0.622. With NCI-H1395 the relative viability was 0.734. For NCI-H1793, the relative viability was 0.236.

Same assay, conditions: first compound 1.265 µM
NCI-H1623 gave a relative viability of 0.389. In the case of NCI-H727, the relative viability is reported as 0.466. With NCI-H1650 the relative viability was 0.532. Cell Line NCI-H1993 has a relative viability of 0.521. Cell Line SW 1573 has a relative viability of 0.439. NCI-H838 showed a relative viability of 0.387. Work on LCLC-103H yielded a relative viability of 0.537. NCI-H2126 showed a relative viability of 0.574. Cell Line EMC-BAC-2 has a relative viability of 0.268. With NCI-H2085 the relative viability was 0.61. Cell Line HCC-366 has a relative viability of 0.173. In the case of NCI-H1666, the relative viability is reported as 0.667. NCI-H596 gave a relative viability of 0.494. Work on LK-2 yielded a relative viability of 0.193. For NCI-H2087, the relative viability was 0.324. NCI-H2342 was tested, and the relative viability was 0.666. For SK-MES-1, the relative viability was 0.541. H3255 was tested, and the relative viability was 0.573. In the case of COR-L23, the relative viability is reported as 0.658. Cell Line COR-L 105 has a relative viability of 0.722. Cell Line LOU-NH91 has a relative viability of 0.692. ChaGo-K-1 gave a relative viability of 0.33. NCI-H2170 gave a relative viability of 0.367. NCI-H2405 showed a relative viability of 0.622. In the case of HOP-62, the relative viability is reported as 0.71. Cell Line HCC-44 has a relative viability of 0.429. With SW 900 the relative viability was 0.381. LU99A gave a relative viability of 0.216. With NCI-H1648 the relative viability was 0.195. NCI-H441 was tested, and the relative viability was 0.347. Work on NCI-H1395 yielded a relative viability of 0.651. For NCI-H1793, the relative viability was 0.186.

Same assay, conditions: first compound 4 µM
NCI-H522 showed a relative viability of 0.712. With NCI-H1623 the relative viability was 0.395. NCI-H727 gave a relative viability of 0.499. NCI-H1650 gave a relative viability of 0.473. NCI-H1993 was tested, and the relative viability was 0.533. In the case of SW 1573, the relative viability is reported as 0.289. For NCI-H838, the relative viability was 0.463. LCLC-103H was tested, and the relative viability was 0.406. Cell Line NCI-H520 has a relative viability of 0.293. NCI-H2126 showed a relative viability of 0.625. With EMC-BAC-2 the relative viability was 0.355. Cell Line NCI-H2085 has a relative viability of 0.764. In the case of HCC-366, the relative viability is reported as 0.122. Work on NCI-H1666 yielded a relative viability of 0.771. NCI-H596 gave a relative viability of 0.519. LK-2 showed a relative viability of 0.214. In the case of NCI-H2087, the relative viability is reported as 0.241. Cell Line NCI-H2342 has a relative viability of 0.512. In the case of SK-MES-1, the relative viability is reported as 0.447. With H3255 the relative viability was 0.518. In the case of COR-L23, the relative viability is reported as 0.744. Cell Line COR-L 105 has a relative viability of 0.71. LOU-NH91 was tested, and the relative viability was 0.784. ChaGo-K-1 showed a relative viability of 0.367. NCI-H2170 showed a relative viability of 0.73. NCI-H2405 was tested, and the relative viability was 0.594. HOP-62 was tested, and the relative viability was 0.758. With HCC-44 the relative viability was 0.452. For SW 900, the relative viability was 0.37. Cell Line LU99A has a relative viability of 0.29. Work on NCI-H1648 yielded a relative viability of 0.256. NCI-H441 showed a relative viability of 0.441. Cell Line NCI-H1395 has a relative viability of 0.418. Cell Line NCI-H1793 has a relative viability of 0.179.
